The results in this text go back to patent publication US20240010684A1, “MASP INHIBITORY COMPOUNDS AND USES THEREOF” (BAYER AKTIENGESELLSCHAFT, priority 2020, published 2024).

For one test, the target named is human MASP1 (Homo sapiens (Human), UniProt P48740). Put plainly: Biochemical human MASP1 assay (FRET substrate). To be noted: Average IC50; recombinant human MASP1; read-out: human MASP1 IC50. In a few lines:
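IC50 derived from % inhibition versus compound concentration, with fluorescence increase read at 320/420 nm after 60-120 min at 32 C. Enzyme: HEK293-secreted, His-tagged human MASP1 fragment 297-699 at 20 nM in HEPES pH 8,0 buffer with NaCl, CHAPS, glutathione; substrate ABZ-peptide-Lys(Dnp)-NH2 added as 20 μM solution.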

In the next test the target is human MASP2 (Homo sapiens (Human), UniProt O00187). Put plainly: Biochemical human MASP2 assay (FRET substrate). To be noted: Average IC50; recombinant human MASP2; read-out: human MASP2 IC50. A digest of the protocol: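 IC50 came from % inhibition across compound concentrations, with fluorescence (ex 340 nm, em 490 nm) read after 60-120 min at 32 C. Substrate was a DABCYL FRET peptide, added as a 60 μM solution, cleaved by HEK293-expressed, Ni-NTA-purified mature recombinant human MASP2.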

Test [1] concerns Human C3-DEPOSITION SERUM. Put plainly: C3 deposition assay, human serum on mannan-coated plates. It is filed as biochemical. The note with it: Average IC50, read-out: Human C3-DEPOSITION SERUM IC50. As for the experimental part:
3. C3 Deposition Assay (Human, Rat, Mouse, Dog, Pig))
The C3 deposition assay was conducted essentially as described (reference). Multiwell plates (Greiner-Nunc 384 Maxi Sorp #464718) were coated over night with Mannan from Saccharomyces cerevisiae (Sigma M7504, 10 μg/mL in 0.05 M carbonate-bicarbonate buffer, pH 9.6) at 4° C. Wells were washed three times with TBS and subsequently incubated for 2 hours with 50 μL of 1% bovine serum albumin (BSA) in Tris-buffered saline (TBS) at 37° C. in order to block non-specific binding. After this step and each of the following incubation steps wells were washed three times with C3 wash buffer (TBS; 0.05% Tween 20; 5 mM CaCl2). […] When appropriately developed the color reaction was stopped by addition of 25 μL of stop solution (Sigma S5814) and quantified on a photometer by measuring absorption at a wavelength of 450 nm. Antibodies were diluted in C3 wash buffer supplemented with 0.5% BSA.

Where a SMILES comes first, the peptide text is derived from it. Bridges are numbered along the chain shown (N, C = ends). [ ]: non-standard residue; d: D form. ξ: configuration not given here. Oic = O=C(O)[C@@H]1C[C@@H]2CCCC[C@@H]2N1; Trx = NC[C@H]1CC[C@H](C(=O)O)CC1; tBuAla = CC(C)(C)C[C@H](N)C(=O)O; Pen = CC(C)(S)[C@H](N)C(=O)O; NMeC = CN[C@@H](CS)C(=O)O; Orn = NCCC[C@H](N)C(=O)O; Dap = NC[C@H](N)C(=O)O; ξD = NC(CC(=O)O)C(=O)O

Sequence of human MASP2 (O00187 other isoform, or with tags, fused parts or gaps): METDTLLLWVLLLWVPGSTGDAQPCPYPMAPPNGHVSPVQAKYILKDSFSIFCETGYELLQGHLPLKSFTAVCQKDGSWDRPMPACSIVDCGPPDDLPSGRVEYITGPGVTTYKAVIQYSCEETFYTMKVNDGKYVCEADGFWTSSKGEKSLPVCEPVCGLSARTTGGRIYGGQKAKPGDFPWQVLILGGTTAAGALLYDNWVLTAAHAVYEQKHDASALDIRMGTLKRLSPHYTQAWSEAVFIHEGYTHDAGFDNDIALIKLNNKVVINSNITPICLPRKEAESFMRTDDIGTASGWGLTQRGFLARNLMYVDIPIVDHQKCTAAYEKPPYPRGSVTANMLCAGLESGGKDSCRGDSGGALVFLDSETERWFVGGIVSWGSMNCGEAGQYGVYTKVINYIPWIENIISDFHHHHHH
Sequence of human MASP1 (P48740 other isoform, or with tags, fused parts or gaps): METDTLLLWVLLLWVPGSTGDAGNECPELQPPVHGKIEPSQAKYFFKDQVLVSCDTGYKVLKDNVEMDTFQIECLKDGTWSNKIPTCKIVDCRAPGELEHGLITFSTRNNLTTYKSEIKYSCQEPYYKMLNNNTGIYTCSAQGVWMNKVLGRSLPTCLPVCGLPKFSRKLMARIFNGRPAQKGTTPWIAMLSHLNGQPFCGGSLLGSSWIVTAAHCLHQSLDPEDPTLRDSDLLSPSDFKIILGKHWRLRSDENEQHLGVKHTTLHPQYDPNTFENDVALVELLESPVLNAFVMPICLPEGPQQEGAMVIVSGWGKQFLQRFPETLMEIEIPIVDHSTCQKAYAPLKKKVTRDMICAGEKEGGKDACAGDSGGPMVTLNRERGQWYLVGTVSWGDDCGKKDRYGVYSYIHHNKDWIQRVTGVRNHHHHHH

In the case of `CC[C@H](C)[C@@H]1NC(=O)[C@H](CN)NC(=O)[C@H](CN)NC(=O)[C@H]([C@@H](C)CC)NC(=O)[C@H]2NC(=O)[C@H]([C@@H](C)CC)NC(=O)[C@@H]3CCCN3C(=O)[C@@H]3CCCN3C(=O)[C@H](CC(C)(C)C)NC(=O)[C@H](CO)NC(=O)[C@H](CCCNC(=N)N)NC(=O)[C@H](CO)NC(=O)[C@H](CSSC2(C)C)NC1=O` [Example 57, N-{3-[(5aS,11S,14S,17S,20S,23R,26S,29S,32S,35S,38R,41S,43aS)-29,32-bis(aminomethyl)-26,35,41-tri[(2S)-butan-2-yl]-11-(2,2-dimethylpropyl)-14,20-bis(hydroxymethyl)-44,44-dimethyl-5,10,13,16,19,22,25,28,31,34,37,40,43-tridecaoxodotetracontahydro-5H-23,38-(methanodithiomethano)dipyrrolo[1,2-a:1′,2′-d]-[1,4,7,10,13,16,19,22,25,28,31,34,37]tridecaazacyclononatriacontin-17-yl]propyl}guanidine] (cyclo(CSRS[tBuAla]PPI[Pen]I[Dap][Dap]I); disulfide 1-9), the results for the IC50 (on human MASP1; at human MASP2; in test [1]) were 46 nM, 340 nM and 236 nM, respectively.

For `CC[C@H](C)[C@@H]1NC(=O)[C@H](C)NC(=O)[C@@H](N)CCCNC(=O)C[C@@H](C(N)=O)NC(=O)[C@@H]2CCCN2C(=O)[C@H]([C@@H](C)CC)NC(=O)[C@H]2NC(=O)[C@H]([C@@H](C)CC)NC(=O)[C@@H]3CCCN3C(=O)[C@@H]3CCCN3C(=O)[C@H](CC(C)(C)C)NC(=O)[C@H](CO)NC(=O)[C@H](CCCNC(=N)N)NC(=O)[C@H](CO)NC(=O)[C@H](CSSC2(C)C)NC1=O` [Example 61] (H-[Orn]AICSRS[tBuAla]PPI[Pen]IPD-NH2; lactam 1-15; disulfide 4-12), the concentration for half-maximal inhibition (IC50) on human MASP1 came to 3.1 nM; at human MASP2, 310 nM; in test [1] it was 23.4 nM.

As to `CC[C@H](C)[C@@H]1NC(=O)CNC(=O)[C@H]2CC[C@@H](CC2)CNC(=O)CNC(=O)CC(C(N)=O)NC(=O)[C@@H]2CCCN2C(=O)[C@H]([C@@H](C)CC)NC(=O)[C@H]2NC(=O)[C@H]([C@@H](C)CC)NC(=O)[C@@H]3CCCN3C(=O)[C@@H]3CCCN3C(=O)[C@H](CC(C)(C)C)NC(=O)[C@H](CO)NC(=O)[C@H](CCCNC(=N)N)NC(=O)[C@H](CO)NC(=O)[C@H](CSSC2(C)C)NC1=O` (stereo partly drawn) [Example 62, (1R,4S,10S,21S,24S,30S,33R,36S,39S,42S,45S,51S,57S,60S)-4,30,60-tri[(2S)-butan-2-yl]-39-(3-carbamimidamidopropyl)-45-(2,2-dimethylpropyl)-36,42-bis(hydroxymethyl)-63,63-dimethyl-2,5,11,15,18,25,28,31,34,37,40,43,46,52,58,61-hexadecaoxo-64,65-dithia-3,6,12,16,19,26,29,32,35,38,41,44,47,53,59,62-hexadecaazahexacyclo[31.29.4.2^21,240.0^6,100.0^47,510.0^53,57]octahexacontane-13-carboxamide] (G[Trx]GICSRS[tBuAla]PPI[Pen]IP[ξD]-NH2; disulfide 5-13; lactam N-16), the values for the IC50 (on human MASP1; at human MASP2; in test [1]) were 22 nM, 540 nM and 149 nM, respectively.

In the case of `CC[C@H](C)[C@@H]1NC(=O)[C@H]2NC(=O)[C@H]([C@@H](C)CC)NC(=O)[C@@H]3CCCN3C(=O)[C@@H]3CCCN3C(=O)[C@H](CC(C)(C)C)NC(=O)[C@H](CO)NC(=O)[C@H](CCCNC(=N)N)NC(=O)[C@H](CO)NC(=O)[C@H](CSSC2(C)C)NC(=O)[C@H]([C@@H](C)CC)NC(=O)[C@@H](N)CCCNC1=O` [Example 66, N-{3-[(5aS,11S,14S,17S,20S,23R,26S,29R,35S,38S,41S,43aS)-29-amino-26,35,41-tri[(2S)-butan-2-yl]-11-(2,2-dimethylpropyl)-14,20-bis(hydroxymethyl)-44,44-dimethyl-5,10,13,16,19,22,25,28,34,37,40,43-dodecaoxodotetracontahydro-5H-23,38-(methanodithiomethano)dipyrrolo[2,1-1:2′,1′-o][1,4,7,10,13,16,19,22,25,28,31,34]dodecaazacyclononatriacontin-17-yl]propyl}guanidine] (H-[Orn]ICSRS[tBuAla]PPI[Pen]I; lactam 1-C; disulfide 3-11), the IC50 at human MASP1 turned out to be 8.1 nM; at human MASP2, 22 nM; in test [1], 25.8 nM.

For the molecule `CC[C@H](C)[C@@H]1NC(=O)[C@H]2NC(=O)[C@H]([C@@H](C)CC)NC(=O)[C@@H]3CCCN3C(=O)[C@@H]3CCCN3C(=O)[C@H](CC(C)(C)C)NC(=O)[C@H](CO)NC(=O)[C@H](CCCNC(=N)N)NC(=O)[C@H](CO)NC(=O)[C@H](CSSC2(C)C)NC(=O)[C@H]([C@@H](C)CC)NC(=O)[C@@H](N)CCCCNC1=O` [Example 67, N-{3-[(5aS,11S,14S,17S,20S,23R,26S,29S,36S,39R,42S,44aS)-29-amino-26,36,42-tri[(2S)-butan-2-yl]-11-(2,2-dimethylpropyl)-14,20-bis(hydroxymethyl)-45,45-dimethyl-5,10,13,16,19,22,25,28,35,38,41,44-dodecaoxodotetracontahydro-1H,5H-23,39-(methanodithiomethano)dipyrrolo[2,1-1:2′,1′-o][1,4,7,10,13,16,19,22,25,28,31,34]dodecaazacyclotetracontin-17-yl]propyl}guanidine] (H-KICSRS[tBuAla]PPI[Pen]I; lactam 1-C; disulfide 3-11), the results for the IC50 (at human MASP1; on human MASP2; in test [1]) were 3.25 nM, 150 nM and 19.1 nM, respectively.

As to `CC[C@H](C)[C@@H]1NC(=O)CNC(=O)[C@H]2CC[C@@H](CC2)CNC(=O)CNC(=O)C[C@@H](C(N)=O)NC(=O)[C@@H]2CCCN2C(=O)[C@H]([C@@H](C)CC)NC(=O)[C@@H]2CSSC[C@H](NC1=O)C(=O)N[C@@H](CO)C(=O)N[C@@H](CCCNC(=N)N)C(=O)N[C@@H](CO)C(=O)N[C@@H](CC(C)(C)C)C(=O)N1CCC[C@H]1C(=O)N1CCC[C@H]1C(=O)N[C@@H]([C@@H](C)CC)C(=O)N2C` [Example 69, (1R,4S,10S,13S,21S,24S,30S,33R,36S,39S,42S,45S,51S,57S,60S)-4,30,60-tri[(2S)-butan-2-yl]-39-(3-carbamimidamidopropyl)-45-(2,2-dimethylpropyl)-36,42-bis(hydroxymethyl)-62-methyl-2,5,11,15,18,25,28,31,34,37,40,43,46,52,58,61-hexadecaoxo-64,65-dithia-3,6,12,16,19,26,29,32,35,38,41,44,47,53,59,62-hexadecaazahexacyclo[31.29.4.2^21,240.0^6,100.0^47,510.0^53,57]octahexacontane-13-carboxamide] (G[Trx]GICSRS[tBuAla]PPI[NMeC]IPD-NH2; disulfide 5-13; lactam N-16), the results for the half-inhibitory concentration (IC50) (on human MASP1; at human MASP2; in test [1]) were 20 nM, 190 nM and 364 nM, respectively.

Consider `CC[C@H](C)[C@@H]1NC(=O)[C@@H](N)CNC(=O)[C@@H]2CCCN2C(=O)[C@H]([C@@H](C)CC)NC(=O)[C@H]2NC(=O)[C@H]([C@@H](C)CC)NC(=O)[C@@H]3C[C@@H]4CCCC[C@@H]4N3C(=O)[C@@H]3CCCN3C(=O)[C@H](CC(C)C)NC(=O)[C@H](CO)NC(=O)[C@H](CCCNC(=N)N)NC(=O)[C@H](CO)NC(=O)[C@H](CSSC2(C)C)NC1=O` [Example 85] (H-[Dap]ICSRSLP[Oic]I[Pen]IP; lactam 1-C; disulfide 3-11), for which the results for the IC50 (at human MASP1; on human MASP2; in test [1]) were 1000 nM, 1000 nM and 3130 nM, respectively.

As for `CC[C@H](C)[C@@H]1NC(=O)[C@H](CN)NC(=O)[C@@H](N)CNC(=O)[C@@H]2CCCN2C(=O)[C@H]([C@@H](C)CC)NC(=O)[C@H]2NC(=O)[C@H]([C@@H](C)CC)NC(=O)[C@@H]3C[C@@H]4CCCC[C@@H]4N3C(=O)[C@@H]3CCCN3C(=O)[C@H](CC(C)C)NC(=O)[C@H](CO)NC(=O)[C@H](CCCNC(=N)N)NC(=O)[C@H](CO)NC(=O)[C@H](CSSC2(C)C)NC1=O` [Example 86] (H-[Dap][Dap]ICSRSLP[Oic]I[Pen]IP; lactam 1-C; disulfide 4-12), the 50% inhibitory concentration (IC50) on human MASP1 was 27 nM; on human MASP2 it was 1000 nM; in test [1], 46.3 nM.

With `CC[C@H](C)[C@@H]1NC(=O)[C@H](CN)NC(=O)[C@@H]2CCCN2C(=O)[C@H]([C@@H](C)CC)NC(=O)[C@H]2NC(=O)[C@H]([C@@H](C)CC)NC(=O)[C@@H]3C[C@@H]4CCCC[C@@H]4N3C(=O)[C@H]3CCCN3C(=O)[C@H](CC(C)C)NC(=O)[C@H](CO)NC(=O)[C@H](CCCNC(=N)N)NC(=O)[C@H](CO)NC(=O)[C@H](CSSC2(C)C)NC1=O` [Example 87] (cyclo(CSRSL[dP][Oic]I[Pen]IP[Dap]I); disulfide 1-9), the concentration for half-maximal inhibition (IC50) at human MASP1 was 46 nM; at human MASP2, 700 nM; in test [1], 78.6 nM.
